Measurements published in patent publication EP4667500A1, “FRUCTOOLIGOSACCHARIDE DERIVATIVES AND USES THEREOF” (Biopract GmbH, priority 2024, dated 2025).

System: pancreatic enzymes
Experiment: Stability in simulated small intestine (pancreatic hydrolysis), released substituent acid detected by HPLC
Format: in vitro ADME
Conditions: incubation in simulated intestinal environment
Text: The compounds analysed are esters between primary or secondary alcohols and fatty acids. In the stomach, the influence of the pH value and its chemical effect is decisive. The stability of the molecules there depends mainly on the nature of the bond. This is the same for all the molecules analysed. […] In contrast, hydrolysis in the small intestine is enzymatically catalysed and the stability can vary greatly between the molecules studied. The work on stability was therefore focussed on pancreatic hydrolysis.
The synthesised ester compounds consisted of a fructooligosaccharide scaffold of the inulin or levan type, to which substituent molecules were bound via an ester bond. Organic acids, predominantly butyric acid, and also propionic acid, acetic acid, succinic acid and benzoic acid served as substituents. The study consisted of incubating the substances in a simulated intestinal environment, followed by the detection of the substituent acid present and, if applicable, released by means of HPLC. Tributyrin was used as a positive control according to the literature.

stability under the test conditions of the simulated small intestine: largely hydrolysed
SMILES: CCCC(=O)OCC(COC(=O)CCC)OC(=O)CCC [Tributyrin]
